Experimental findings from patent US20260217677A1, “ORGANIC COMPOUNDS AS NLRP3 INHIBITORS” (KODIAK SCIENCES, INC., priority 2023, published 2026) are described below.

The test system of the first assay is IL-1β release in U937 cells after NLRP3 activation. Briefly: IL-1β release inhibition in U937 cells (MSD V-Plex). Particulars: Homo sapiens, U-937, read-out: IL-1β IC50, Table 3; PMA-differentiated U937 cells, 1 μg/mL LPS 3 h, compound 30 min, 10 mM nigericin 1 h.
Procedure: Differentiating media was prepared by adding 20 nM phorbol 12-myristate 13-acetate (PMA) (AdipoGen AG-CN2-0010-M005) to growth medium. A cell suspension was prepared with differentiating media at 500K cells/mL. […] Plates were placed in an incubator for 90 hours. […] Differentiating media was removed and priming media was added to each well. The plates were placed in the incubator for three (3) hours. 20 mM compound DMSO stock solutions were prepared and were further diluted to 0.4 mM; This solution was serially diluted 6 times in a 1:5 ratio. A solvent control was included.
After three (3) hours of priming, all the media was removed. Next, assay media with compounds was added in duplicate columns. The plate was placed in an incubator for 30 min. Media with a final concentration of 10 mM nigericin was then added for one (1) hour. The supernatant was collected and frozen immediately at −80° C. The plate was transferred to −20° C. the next day and for later determination of cytokine IL-1ß levels.
The release of IL-1ß into the cell media was determined with the MSD® Multi-Spot Assay System (V-Plex, IL-1ß kit, K151KPD). Following the manufacturer's protocol (Alternate Protocol 3, Dilute-In-Plate), the level of IL-1ß in the above collected supernatant plate was measured using electro-chemiluminescent signals. Using MSD DISCOVERY WORKBENCH® analysis software, the signals were converted to the concentration of IL-1ß in each well. The IC50 values of the compounds were calculated using fitted non-linear regression curve in Graph Pad Prism software. The detection range of IL-1ß using MSD kit was approximately 0.15 to 600 μg/mL (based on various lots of standards purchased from MSD).
In the case of `Cc1cc(N[C@@H]2CCCN(C(=O)C3CCCC(O)C3)C2)nnc1-c1ccc(C(F)(F)F)cc1O` (single isomer, unassigned) [Example 70 Fraction A], the IC50 was 5 to 50 nM.
The same measure, in the same setting: the figure for `Cc1cc(N[C@@H]2CCCN(CCOC(=O)N3CCC(O)CC3)C2)nnc1-c1ccc2sccc2c1O` [Example 69, (R)-2-(3-((6-(4-Hydroxybenzo[b]thiophen-5-yl)-5-methylpyridazin-3-yl)amino)piperidin-1-yl)ethyl 4-hydroxypiperidine-1-carboxylate] is below 5 nM; for `Cc1c(-c2ccc(C(F)(F)F)cc2O)nnc2c1CCCN2[C@@H]1CCCN(C2CCN([C@H]3C[C@@H](O)C3)CC2)C1` [Example 45, 2-{4-Methyl-8-[(3R)-1′-[(1s,3s)-3-hydroxycyclobutyl]-[1,4′-bipiperidin]-3-yl]-5H,6H,7H-pyrido[2,3-c]pyridazin-3-yl}-5-(trifluoromethyl)phenol] it is 50 to 500 nM; for `Cc1cc(N[C@@H]2CCCN(CCC3CC(O)C3)C2)nnc1-c1ccc(C(F)(F)F)cc1O` (stereo partly drawn) [Example 66, (R)-2-(6-((1-(2-(3-Hydroxycyclobutyl)ethyl)piperidin-3-yl)amino)-4-methylpyridazin-3-yl)-5-(trifluoromethyl)phenol] it is below 5 nM.
The same measure, in the same setting: the same measure for `O=C(CN1CCC[C@@H](Nc2nnc(-c3ccc(C(F)(F)F)cc3O)c3c2COC3)C1)N1CC[C@@H](O)C1` [Example 27, 2-((R)-3-((4-(2-hydroxy-4-(trifluoromethyl)phenyl)-5,7-dihydrofuro[3,4-d]pyridazin-1-yl)amino)piperidin-1-yl)-1-((R)-3-hydroxypyrrolidin-1-yl) ethan-1-one]: 5 to 50 nM.
The same measure, in the same setting: the figure for `Cc1cc(N[C@@H]2CCCN(C[C@H]3C[C@@H](O)C3)C2)nnc1-c1ccc2sccc2c1O` [Example 51, 5-(6-(((R)-1-(((1s,3S)-3-Hydroxycyclobutyl)methyl)piperidin-3-yl)amino)-4-methylpyridazin-3-yl)benzo[b]thiophen-4-ol] is below 5 nM; for `Cc1cc(N[C@@H]2CCCN(CCN3CC(O)C(F)C3)C2)nnc1-c1ccc(C(F)(F)F)cc1O` (stereo partly drawn) [Compound 5, 4-Fluoro-1-(2-((R)-3-((6-(2-hydroxy-4-(trifluoromethyl)phenyl)-5-methylpyridazin-3-yl)amino)piperidin-1-yl)ethyl)pyrrolidin-3-ol] it is below 5 nM.

Staying with this assay, now noted: Homo sapiens, U-937, read-out: IL-1β IC50, Table 4; PMA-differentiated U937 cells, 1 μg/mL LPS 3 h, compound 30 min, 10 mM nigericin 1 h.
For `Cc1cc(N[C@@H]2CCCN(C(=O)C(F)(F)CN)C2)nnc1-c1ccc(C(F)(F)F)cc1O` [Example 96, (R)-3-Amino-2,2-difluoro-1-(3-((6-(2-hydroxy-4-(trifluoromethyl)phenyl)-5-methylpyridazin-3-yl)amino)piperidin-1-yl) propan-1-one], the IC50 fell in the range of 5 to 50 nM.
Regarding `Cc1cc(N[C@@H]2CCCN(C3CCN(C(=O)N4CCNCC4)CC3)C2)nnc1-c1ccc(C(F)(F)F)cc1O` [Example 86, (R)-(3-((6-(2-hydroxy-4-(trifluoromethyl)phenyl)-5-methylpyridazin-3-yl)amino)-[1,4′-bipiperidin]-1′-yl) (piperazin-1-yl)methanone], the IC50 was 5 to 50 nM.
Same read-out and setting: the same measure for `Cc1cc(N[C@@H]2CCCN(C3CC(N)C3)C2)nnc1-c1ccc(C(F)(F)F)cc1O` (stereo in doubt) [Example 91, 2-(6-(((R)-1-((1s*,3S*)-3-aminocyclobutyl)piperidin-3-yl)amino)-4-methylpyridazin-3-yl)-5-(trifluoromethyl)phenol]: 5 to 50 nM.
With `Cc1cc(N[C@@H]2CCCN(CC(=O)N3CCC4(CC3)CC(N)C4)C2)nnc1-c1ccc(C(F)(F)F)cc1O` [Example 82], the IC50 is 5 to 50 nM.

Still in this assay, the particulars now being: read-out: IL-1β IC50; Table 3; PMA-differentiated U937 cells, 1 μg/mL LPS 3 h, compound 30 min, 10 mM nigericin 1 h.
Turning to `Cc1cc(N[C@@H]2CCCN(C3CCC(O)CC3)C2)nnc1-c1ccc(C(F)(F)F)cc1O` (single isomer, unassigned) [Example 54], the 50% inhibitory concentration (IC50) was below 5 nM.
The same measure, in the same setting: the same measure for `Cc1cc(N[C@@H]2CCCN(C3CCN(C4CCC(O)CC4)CC3)C2)nnc1-c1ccc(C(F)(F)F)cc1O` (single isomer, unassigned) [Example 39B]: 5 to 50 nM.

The term IC50 denotes the concentration at which inhibition is half-maximal.
